Laboratory results from US20130203822A1, “COMPOUNDS FOR TREATMENT OF TUMORS BEARING D[…] ONCOPROTEINS” (priority 2010, published 2013).
Structures can show the parent of a compound that is named as a salt.

Experiments:
[1] = humans; deferiprone: iron overload treatment in transfused thalassemia patients; doxorubicin: high dose infusional in tumor bearing patients; cited from earlier work
[2] = rat; cited from earlier work
[3] = system: CHP134 and SiMa neuroblastoma cell lines; assay: WST-1 dose-response cytotoxicity of ciclopirox olamine and piroctone olamine; format: cell-based, human; settings: 0.33-100 μM, 48 hours
Procedure: After adhesion, cells were treated with different concentration of CPX ranging from 66 nM to 66 uM concentration and incubated at 37° with 5% CO2 and 100% relative humidity for 48 hours. At the defined endpoint, 15 ul of WST1 reagent were added and after 4 hours incubation at 37° with 5% CO2 and 100% relative humidity, plates were read for absorbance at 450 nm in a Tecan F200 multiplate reader (Tecan).
(§1) Different measurements were needed in order to calculate the percentage growth: time zero (Tz: that represent a measurement of the cell population at the time of drug addition), control growth (C: measures the growth of the cells treated with vehicle only after 48 hours) and test growth (Ti: that represent a measurement of the cell population after 48 hours treatment with CPX).
Percentage growth is calculated as above by means of eq.s (2) and (3).
In order to understand if compounds of similar molecular structure to that of CPX could be also effective in inducing a cytotoxic activity, we treated two neuroblastoma cell lines, CHP134 and SiMa, with increasing concentrations of both compounds (0.33-1-3.3-10-33-100 μM), and we measured cytotoxicity after 48 hours as detailed before.

[4] = system: CHP134 cells; assay: Annexin V-FITC / PI apoptosis assay by flow cytometry; format: cell-based, human; settings: CHP134, 24 and 48 hr, different concentrations
Procedure: c) Apoptosis assay was performed by flow cytometry. CHP134 cells were seeded 10 cm-dishes at the concentration 1×10^6 cells under standard culture conditions. In three days cells were treated with CPX at different concentration for 24 and 48 hr. The cells were then harvested, washed with cold PBS and processed for apoptosis assay using the Annexin V-FITC Apoptosis Detection Kit I (BD Biosciences) by following the instructions of the manufacturer. Briefly, cells were stained with FITC-Annexin V and PI (Propidium Iodide) in order to allow for the identification of death cells (FITC and PI positive), viable cells (FITC and PI negative) and pre-apoptotic cells (FITC positive and PI negative). Flow cytometric analysis was performed with the BD FACS Canto (BD Biosciences).
The results are shown, in FIG. 6. Numbers indicate the percentage of apoptotic/dead cells (P1) and pre-apoptotic cells (P2) respectively.

[5] = system: MYCN 3′UTR; assay: luciferase reporter screening and counter-screening in CHP134-MYCN and CHP134-CTRL stable clones; format: cell-based, human; settings: 24 h; for dependence of luciferase reporter upregulation on MYCN 3′UTR (counter-screening): 2 uM, CHP134-MYCN#3 versus CHP134-CTRL#19
Procedure: Reporter constructs containing the firefly luciferase reporter gene under the control of the CMV viral promoter and followed by either the whole MYCN 3′UTR (pGL4.26-MYCN3UTR) or the only SV40 poly(A) region (pGL4.26-CTRL) as a control were produced as disclosed above.
The CHP134 neuroblastoma cell line was used to generate stable transfection clones as disclosed in Example 3.
The screening was carried out in the CHP134-MYCN#3 stable clone with the Spectrum Collection small molecule library (MicroSource Discovery) composed of 2000 compounds stored at 10 mM in DMSO: 800 drugs that have been introduced in the US, 200 drugs that are limited in use to Europe and Japan, 580 natural products, 420 compounds with reported biological activities.
The assay was run in triplicates in 96-well plates. CHP134-MYCN stable clone cells were trypsinized, harvested and resuspended in culture medium. Tecan Multichannel arm (MCA96) of a Tecan EVO 200 robot (Tecan) was used to add 150 uL containing 15000 cells to the 96-well white CulturePlate-96 (Perkin Elmer).
After adhesion, the 10 mM compounds were diluted to 75 uM in PBS and immediately pipetted into the 96 wells in order to have a final concentration of 2 uM in the cells. Baseline controls were obtained treating the first column wells with PBS+DMSO at the same final concentration of the samples.
Luciferase activity was assessed using OneGlow Luciferase assay (Promega) according to the manufacturer's method, after 24 h of incubation at 37° with 5% CO2 and 100% relative humidity. Luminescence signal was read on a Tecan F200 multiplate reader (Tecan) integrated with the robot.
The majority of the hits (Table 1) were then checked for reproducibility and cytotoxic activity, the most interesting compounds were also tested for dose-responsiveness. The same hits were subsequently subjected to counter-screening with the stable clone CHP134-CTRL#19 expressing the control pGL4.26-CTRL plasmid, to segregate plasmid promoter-dependent transcriptional control effects.
To verify the specificity of the CPX effect for the MYCN 3′UTR and its clone-independency, the treatment was repeated with the CHP134-MYCN#3 clone and the CHP134-CTRL#19 clones and with two independent others, again stably transfected with the pGL4.26-MYCN3UTR and the pGL4.26-CTRL plasmids (respectively, CHP134-MYCN#1 and the CHP134-CTRL#17 clones).
Treatment with CPX 2 uM and measurement of luciferase activity with the OneGlow luciferase assay after 24 h provided a confirmation of the screening results (FIG. 3).

[6] = system: CHP134-MYCN#3 neuroblastoma cell clone; assay: WST-1 cell cytotoxicity assay with selected hits at 2 uM; format: cell-based, human; settings: MYCN-amplified neuroblastoma cells, 24 or 48 hours
Procedure: a) Cell cytotoxicity was performed by WST1 assay (Roche) following the manufacturer's instruction: 15000 cells were plated in each well of 96-well transparent Spectra Plate (Perkin Elmer) in 150 ul of complete media.
After adhesion, cells were treated with the selected drugs (Table 1) at 2 uM concentration and incubated at 37° with 5% CO2 and 100% relative humidity for 24 or 48 hours. At the defined endpoint, 15 uL of WST1 reagent were added and after 4 hours incubation at 37° with 5% CO2 and 100% relative humidity, plates were read for absorbance at 450 nm in a Tecan F200 multiplate reader (Tecan).
as §1, with “after 24 or” for “after”, “hours). Percentage growth is calculated as:” for “hours treatment with CPX).”
[(Ti−Tz)/(C−Tz)]×100 eq. (2)
for concentrations for which Ti>=Tz;
for concentrations for which Ti<Tz.

[7] = system: MYCN protein; assay: immunofluorescence analysis of MYCN expression; format: cell-based, human; settings: CHP134 cells, 24 h, different concentration of CPX
Procedure: To verify if the CPX enhancement effects on luciferase activity was accompanied by an increase in MYCN protein levels, an immunofluorescence analysis were performed on CHP134 cells plated in 96-well imaging plates (BD) and treated after adhesion for 24 h at different concentration of CPX. Cells were fixed by paraformaldehyde (PFA) 3.7%, permeabilized with 0.1% Triton X100, incubated with anti-MYCN mouse monoclonal antibody (ab16898, ABCAM) and stained with Alexafluor 488 rabbit anti-mouse secondary antibody.
Images were acquired by Operetta (Perkin Elmer) high content system and analyzed by the Harmony software.
Results represent fluorescence intensity in the nuclear area previously identified by DAPI staining.

SMILES	plasma concentration [1] [µM]	acute lethal dose 50 (LD50) [2] [mg/kg]	dependence of luciferase reporter upregulation on MYCN 3′UTR (counter-screening) [5]	cytotoxicity [6]	also measured
Cc1c(O)c(=O)ccn1C [deferiprone, 3-hydroxy-1,2-dimethylpyridin-4-one]	≥ 250	2000	–	–	–
Cc1cc(CC(C)CC(C)(C)C)n(O)c(=O)c1.NCCO (stereo not shown) [piroctone olamine]	–	–	–	–	cytotoxic activity compared with CPX [3]: even stronger activity
Cc1cc(C2CCCCC2)n(O)c(=O)c1 [ciclopirox olamine, CICLOPIROX OLAMINE]	–	2350	truly dependent on MYCN 3′UTR	efficient cytotoxicity	effect on cell viability: percentage of apoptotic/dead (P1) and pre-apoptotic (P2) cells [4]: increased percentage of apoptotic/dead cells; luciferase expression ([5]; CPX 2 uM, clones CHP134-MYCN#3, CHP134-MYCN#1, CHP134-CTRL#19, CHP134-CTRL#17): clone-independent, MYCN 3′UTR specific effect of increased luciferase expression; MYCN nuclear immunostaining (fluorescence intensity in the nuclear area) [7]: dose-dependent increase
COc1cccc2c1C(=O)c1c(O)c3c(c(O)c1C2=O)C[C@@](O)(C(=O)CO)C[C@@H]3O[C@H]1C[C@H](N)[C@H](O)[C@H](C)O1 [doxorubicin, DOXORUBICIN]	0.1	10.5	truly dependent on MYCN 3′UTR	efficient cytotoxicity	–
COc1cccc2c1C(=O)c1c(O)c3c(c(O)c1C2=O)C[C@@](O)(C(C)=O)C[C@@H]3O[C@H]1C[C@H](N)[C@H](O)[C@H](C)O1 [daunorubicin, DAUNORUBICIN]	–	–	truly dependent on MYCN 3′UTR	efficient cytotoxicity	–
COc1cccc2c1C(=O)c1c(O)c3c(c(O)c1C2=O)C[C@@](O)(C(=O)CO)C[C@@H]3O[C@H]1C[C@H](N)[C@@H](O)[C@H](C)O1 [epirubicin, EPIRUBICIN HYDROCHLORIDE]	–	–	–	efficient cytotoxicity	–
